According to patent publication US5204470A, “Azabicyclic derivatives” (John Wyeth & Brother, Limited, priority 1990, dated 1993):

Experiments:
5-HT3 receptors [1] = molecular target: T1, 5-HT3 receptors (Rattus norvegicus, UniProt P35563); experiment: 5-HT3 receptor antagonism in the isolated vagus nerve of the rat (5-HT induced depolarization); type: cell-based; details: isolated rat cervical vagus nerve; antagonism of 5-HT induced depolarization; estimated from 5-HT concentration ratios; read-out: apparent pKB (converted)
T1 construct: isolated vagus nerve of the rat; from tissue; host or cells: rat isolated (cervical) vagus nerve
T1 sequence (P35563 24-483): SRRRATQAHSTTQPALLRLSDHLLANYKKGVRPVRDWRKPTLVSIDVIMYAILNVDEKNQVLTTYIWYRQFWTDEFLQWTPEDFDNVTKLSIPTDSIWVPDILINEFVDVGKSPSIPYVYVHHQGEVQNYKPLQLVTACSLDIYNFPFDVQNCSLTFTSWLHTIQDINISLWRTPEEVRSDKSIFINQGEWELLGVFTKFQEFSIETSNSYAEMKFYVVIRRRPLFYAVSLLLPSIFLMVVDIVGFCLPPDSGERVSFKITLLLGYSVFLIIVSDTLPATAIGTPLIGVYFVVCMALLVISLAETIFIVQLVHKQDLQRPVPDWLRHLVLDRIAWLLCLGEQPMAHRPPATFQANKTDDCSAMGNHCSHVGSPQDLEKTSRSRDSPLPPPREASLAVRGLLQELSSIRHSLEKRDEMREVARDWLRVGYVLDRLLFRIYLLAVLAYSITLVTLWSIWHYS
Description: The compounds of the invention are tested for 5-HT3 receptor antagonism in the isolated vagus nerve of the rat by a method based upon that of Ireland S. J. and Tyers M. B., Brit. J. Pharmacol., 1987, 90, 229-238. The procedure relies upon the ability of 5-HT to induce depolarization of neurones in the cervical vagus nerve by a direct action on 5-HT3 receptors. A concentration-response curve to 5-HT induced depolarization is obtained and the antagonists are added to the bath containing the isolated nerve before repeating the 5-HT concentration-response curve. Antagonist potency is estimated for the 5-HT concentration ratios and expressed as an apparent pKB value (where KB is the antagonist dissociation constant).

5-HT3 receptors [2] = molecular target: T2, 5-HT3 receptors (Oryctolagus cuniculus, UniProt A0A5F9C9J3); experiment: 5-HT3 antagonist activity in the isolated right atrium of the rabbit heart; type: cell-based; details: antagonism of 5-HT evoked increase in spontaneous rate of beating, read-out: apparent pKB (converted)
T2 construct: isolated right atrium of the rabbit heart; from tissue; host or cells: rabbit isolated right atrium (sympathetic nerve terminals)
T2 sequence (A0A5F9C9J3 1-494): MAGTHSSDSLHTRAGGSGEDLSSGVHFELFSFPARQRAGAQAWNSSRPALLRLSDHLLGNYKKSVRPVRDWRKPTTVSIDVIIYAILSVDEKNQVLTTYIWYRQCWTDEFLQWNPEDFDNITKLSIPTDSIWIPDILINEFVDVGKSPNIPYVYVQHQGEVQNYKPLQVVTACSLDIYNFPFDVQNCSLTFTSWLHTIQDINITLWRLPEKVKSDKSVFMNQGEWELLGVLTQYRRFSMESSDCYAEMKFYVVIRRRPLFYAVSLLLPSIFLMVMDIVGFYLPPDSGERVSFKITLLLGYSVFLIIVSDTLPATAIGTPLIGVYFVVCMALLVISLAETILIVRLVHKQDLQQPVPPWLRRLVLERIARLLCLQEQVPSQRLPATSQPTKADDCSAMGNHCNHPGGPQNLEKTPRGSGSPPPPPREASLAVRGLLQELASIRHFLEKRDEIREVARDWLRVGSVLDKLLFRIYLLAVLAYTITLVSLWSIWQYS
Description: The compounds of the invention are also tested for 5-HT3 antagonist activity in the isolated right atrium of the rabbit heart based upon the method of Fozard J. R., Naunyn-Schmiedeberg's Arch. Pharmacol., 1984, 326, 36-44. This procedure relies upon the ability of 5-HT to stimulate 5-HT3 receptors present on symphetic nerve terminals in the heart, causing release of noradrenaline which evokes an increase in the spontaneous rate of beating. The antagonist potency is expressed in a similar manner to that of the preceding test method i.e. as an apparent pKB.

## CN1C2C=C(Cc3ccc4ccccc4n3)CC1CC2 (centres unmarked) [Example 2, 3-(2-Quinolinylmethyl)-8-methyl-8-azabicyclo[3.2.1]oct-2-ene]
5-HT3 receptors [1]
  Kb: 63.1 nM
5-HT3 receptors [2]
  Kb: 2.51 nM
